Laboratory results from US9789211B2, “Methods and compositions for positron emission tomography myocardial perfusion imaging” (UNIVERSITY OF SOUTHERN CALIFORNIA, priority 2012, dated 2017).

Legend:
[1] = cited from earlier work
[2] = cited from earlier work; remark: listed apart in the source
[3] = test system: H345 lung carcinoma cells; assay: mitochondrial membrane potential-dependent cellular uptake with CCCP treatment; format: cell-based; settings: H345 cells incubated 10 min with CCCP before adding tracers
Experimental: Uptake kinetics of ^64Cu-Sar-TPP and 3H-TPP (standard) may be examined in H345 lung carcinoma cells. In brief, H345 cells will be harvested by trypsinization and washed twice with cold PBS buffer. Cells are counted and re-suspended in loading buffer at a concentration of 2×10^6 cells/mL. The cell suspension (0.5 mL) may be transferred to Eppendorf tubes and incubated at 37° C. for 60 min. An equal volume of loading solution containing 0.5-5 nM ^64Cu-Sar-TPP and 3H-TPP will be added. The sample may be centrifuged (800 rpm, 5 min) to terminate the uptake. Aliquots of the supernatant are then obtained and the remaining solution is aspirated. The radioactivity of the pellet and supernatant is counted together with standard solution ( 1/1,000) in a gamma counter. After completion of gamma counting, scintillation counting are performed after the complete decay of ^64Cu (two weeks). Cell uptake values of ^64Cu-Sar-TPP in H345 cells may be determined over incubation periods of 0.5, 1, 2, 4, and 24 h. […] The mitochondrial membrane potential-dependent cellular uptake of ^64Cu-Sar-TPP will be further assessed using the H345 cells treated with carbonyl cyanide m-chlorophenylhydrazone (CCCP). […] Only the ^64Cu-Sar-TPP probes that are sensitive towards CCCP will be evaluated in future investigation because this experiment supports the tracer uptakes are depend on mitochondria potential as we proposed above.

^64/62Cu-pyruvaldehyde-bis(N4-methyl-thiosemicarbazone) [[^64/62Cu]-PTSM]
clearance from the blood pool ([1]; association with serum albumin): clears slowly
liver uptake ([1]; spillover into the inferior wall of myocardial): high liver uptake

[C-]#[N+]CC(C)(C)OC.[C-]#[N+]CC(C)(C)OC.[C-]#[N+]CC(C)(C)OC.[C-]#[N+]CC(C)(C)OC.[C-]#[N+]CC(C)(C)OC.[C-]#[N+]CC(C)(C)OC.[Tc] [^99mTc-sestamibi]
log P [2]: 1.1

N#CC(C#N)=NNc1cccc(Cl)c1 [CCCP, carbonyl cyanide m-chlorophenylhydrazone]
cell-associated activity of ^64Cu-Sar-TPP and 3H-TPP [3]: dose dependent decrease
